A short description of data set [1]: Particle size distribution by laser diffraction (Malvern Mastersizer 2000, wet dispersion). The class given is physicochemical. Particulars: Fraunhofer optical model, hemihydrate; for particle size distribution D10: d10 cumulative undersize by volume, dispersed in 1% (w/v) polysorbate 20 in water; for particle size distribution D50: d50 cumulative undersize by volume; for particle size distribution D90: d90 cumulative undersize by volume. The method, then: Particle size of original compound (I) and crystallised compound (I) according to the procedure of Example 1 have been determined with laser diffraction (LD). For this purpose, a Malvern Mastersizer 2000 laser diffractometer (Malvern, U.K.) has been used, which was equipped with a Hydro 2000S wet dispersion module. Prior to analysis, an amount of ca. 200 mg of the product was dispersed in 1% (w/v) polysorbate 20 in water by means of vigorous shaking for 30 seconds. A representative portion of this dispersion was than added to the reservoir of the wet dispersion module, which for this purpose was filled with water. The liquid medium was circulated via the measurement cell of the instrument, to allow measurement of the product specific scattering pattern. Based on the scattering intensities as measured under different angles relative to the incoming collimated laser beam, for compound (I) the particle size distribution (PSD) by volume was calculated based on the Fraunhofer optical model. For the PSD, the d10, d50 and d90 cumulative undersize were reported as the relevant statistical descriptors.

A short description of data set [2]: Bulk and tap density (25 g in 100-ml graduated cylinder; 500 taps). The class given is physicochemical. Particulars: for Bulk density: 25 g, volume in 100-ml graduated cylinder; for Bulk density / Tap density: hemihydrate; for Tap density: after 500 taps. The method, then: The bulk and tap densities of the crystallised 1-(β-D-glucopyranosyl)-4-methyl-3-[5-(4-fluorophenyl)-2-thienylmethyl] benzene hemihydrate were measured. The bulk density of 25 g of compound (I) was measured by recording its volume in a 100-ml graduated cylinder. Tap density volume was then measured after 500 taps.

Take `Cc1ccc([C@@H]2O[C@H](CO)[C@@H](O)[C@H](O)[C@H]2O)cc1Cc1ccc(-c2ccc(F)cc2)s1` [crystallised compound (I), 1-(β-D-glucopyranosyl)-4-methyl-3-[5-(4-fluorophenyl)-2-thienylmethyl] benzene hemihydrate]: in data set [1], the “particle size distribution D10” value stood at 20 μm, the “particle size distribution D50” value was 49 μm and the “particle size distribution D90” value was 102 μm. Besides, in data set [2], the Bulk density was found to be 0.35 g/mL and the Tap density came to 0.54 g/mL. For the same compound, in data set [2] (crystallised according to Example 1 versus original compound (I)), the “bulk density higher than for original compound (I)” value was determined as 20%.

With `Cc1ccc([C@@H]2O[C@H](CO)[C@@H](O)[C@H](O)[C@H]2O)cc1Cc1ccc(-c2ccc(F)cc2)s1` [original compound (I), 1-(β-D-glucopyranosyl)-4-methyl-3-[5-(4-fluorophenyl)-2-thienylmethyl] benzene hemihydrate], in data set [1], the “particle size distribution D10” value was 14 μm, the “particle size distribution D50” value came out at 43 μm and the “particle size distribution D90” value came out at 116 μm. In data set [2], this compound gave a Bulk density of 0.28 g/mL and a Tap density of 0.48 g/mL.

The values are drawn from patent publication US8772512B2, “Crystallisation process for 1-(β-D-glucopyranosyl)-4-methyl-3-[5-(4-fluorophenyl)-2-thienylmethyl] benzene” (Janssen Pharmaceutica NV, priority 2009, dated 2014).
